Laboratory results reported in ChEMBL document CHEMBL1146615, “Heterocyclic thrombin inhibitors. Part 2: quinoxalinone derivatives as novel, potent antithrombotic agents” (Bioorg Med Chem Lett, 2003).

Assays:
Prothrombin = Prothrombin (Homo sapiens, UniProt P00734); test: Inhibition of human thrombin
Coagulation factor X = Coagulation factor X (Homo sapiens, UniProt P00742); test: Inhibition of coagulation factor X
Plasminogen = Plasminogen (Homo sapiens, UniProt P00747); test: Inhibition of plasmin
Chain of Plasminogen (P00747 97-580 limits assumed): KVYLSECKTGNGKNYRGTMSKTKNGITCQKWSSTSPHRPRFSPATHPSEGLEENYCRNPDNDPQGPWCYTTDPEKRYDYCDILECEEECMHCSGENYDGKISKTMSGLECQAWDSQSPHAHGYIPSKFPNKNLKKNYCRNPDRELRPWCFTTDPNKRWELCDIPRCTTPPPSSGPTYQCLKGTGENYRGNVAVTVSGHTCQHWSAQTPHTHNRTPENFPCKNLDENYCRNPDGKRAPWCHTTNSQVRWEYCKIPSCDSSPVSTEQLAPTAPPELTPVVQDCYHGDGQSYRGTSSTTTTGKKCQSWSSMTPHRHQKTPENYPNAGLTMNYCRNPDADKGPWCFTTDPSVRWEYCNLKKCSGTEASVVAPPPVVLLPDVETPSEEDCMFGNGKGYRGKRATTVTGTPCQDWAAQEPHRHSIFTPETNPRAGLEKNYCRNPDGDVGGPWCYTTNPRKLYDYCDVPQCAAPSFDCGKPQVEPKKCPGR
Chain of Plasminogen (P00747 581-810 limits assumed): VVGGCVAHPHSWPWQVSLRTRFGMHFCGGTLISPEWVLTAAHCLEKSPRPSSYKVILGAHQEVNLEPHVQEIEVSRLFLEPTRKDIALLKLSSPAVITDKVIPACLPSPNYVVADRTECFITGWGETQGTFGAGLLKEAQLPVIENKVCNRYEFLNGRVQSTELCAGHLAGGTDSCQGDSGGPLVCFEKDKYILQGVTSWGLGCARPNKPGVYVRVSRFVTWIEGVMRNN

[1] = Inhibition of bovine trypsin; parameters: species or system Bos taurus
Homo sapiens = species: Homo sapiens; test: Antithrombotic activity by measuring the activated partial thromboplastin time(aPPT) in human plasma; assay type: functional
[2] = Partition coefficient (logP); assay type: physicochemical; conditions: octanol/water

Chain of Coagulation factor X (P00742 41-179 limits assumed): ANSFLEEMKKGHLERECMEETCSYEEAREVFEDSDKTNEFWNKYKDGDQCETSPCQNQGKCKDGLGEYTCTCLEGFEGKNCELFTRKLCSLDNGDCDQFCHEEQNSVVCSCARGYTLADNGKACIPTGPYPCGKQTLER
Chain of Coagulation factor X (P00742 235-488 limits assumed): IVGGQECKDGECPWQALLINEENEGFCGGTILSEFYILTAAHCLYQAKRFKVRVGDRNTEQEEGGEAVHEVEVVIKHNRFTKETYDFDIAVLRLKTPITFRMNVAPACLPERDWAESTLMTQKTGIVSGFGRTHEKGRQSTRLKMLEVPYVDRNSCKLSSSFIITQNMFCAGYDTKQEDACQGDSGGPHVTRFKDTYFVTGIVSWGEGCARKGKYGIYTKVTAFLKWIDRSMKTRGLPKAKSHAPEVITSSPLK

Structure (SMILES)	IC50 (Prothrombin) [nM]	IC50 (Coagulation factor X) [nM]	IC50 (Plasminogen) [nM]	IC50 [1] [nM]	ED200 (Homo sapiens) [µM]	logP [2]
Cn1c(=O)c(Cc2ccc(C(=N)N)cc2)nc2cc(C(C)(C)C(=O)N3CCCCC3)ccc21	8	400	60000	2200	0.25	–
Cn1c(=O)c(Cc2ccc(C(=N)N)cc2)nc2cc(C(C)(C)C(=O)N3CCCC3)ccc21	5	500	53000	320	0.16	1
Cn1c(=O)c(Cc2ccc(C(=N)N)cc2)nc2cc(C3(C(=O)N4CCCC4CO)CC3)ccc21 (centres undefined)	13	1400	72000	850	0.21	–
CCOC(=O)C(C)(C)c1ccc2c(c1)nc(Cc1ccc(C(=N)N)cc1)c(=O)n2C	10	10600	75000	410	0.43	0.5
Cn1c(=O)c(Cc2ccc(C(=N)N)cc2)nc2cc(C3(N(C(=O)CC(=O)O)C4CCCC4)CC3)ccc21	15	3000	36000	550	0.45	–
CCOC(=O)C1(c2ccc3c(C)cc(Oc4ccc(C(=N)N)cc4)nc3c2)CCCC1	30	–	–	560	–	–

Continued, in another order:

IC50 (Prothrombin) [nM]	IC50 (Coagulation factor X) [nM]	IC50 (Plasminogen) [nM]	Structure (SMILES)	IC50 [1] [nM]	ED200 (Homo sapiens) [µM]	logP [2]
27	46000	69000	CCOC(=O)C1(c2ccc3c(c2)nc(Cc2ccc(C(=N)N)cc2)c(=O)n3C)CC1	580	0.67	–
68	31000	–	Cn1c(=O)c(Cc2ccc(C(=N)N)cc2)nc2cc(C(C)(C)C(=O)N3CCNCC3)ccc21	–	0.71	–
–	–	66000	Cn1c(=O)c(Cc2ccc(C(=N)N)cc2)nc2cc(C3(C(=O)N4CCCC4)CC3)ccc21	–	0.095	1.5
190	> 100000	68000	Cn1c(=O)c(Cc2ccc(C(=N)N)cc2)nc2cc(C3(C(=O)N4CCCC4C(=O)NCC(=O)O)CC3)ccc21 (centres undefined)	2400	0.91	–
–	12100	–	CCOC(=O)C(C)(C)c1ccc2c(C)cc(Oc3ccc(C(=N)N)cc3)nc2c1	2400	0.94	1.7
16	9200	> 100000	CN(C)C(=O)C(C)(C)c1ccc2c(c1)nc(Cc1ccc(C(=N)N)cc1)c(=O)n2C	9500	0.41	–
12	590	–	CC1CCCN(C(=O)C(C)(C)c2ccc3c(c2)nc(Cc2ccc(C(=N)N)cc2)c(=O)n3C)C1 (centres undefined)	–	0.12	–
–	> 100000	–	Cn1c(=O)c(Cc2ccc(C(=N)N)cc2)nc2cc(C3(C(=O)O)CC3)ccc21	–	>10	–
